According to PMC6917776, “Discovery of a chemical probe for PRDM9” (Nature Communications, 2019):
Read-outs that look alike come from different tables or passages of the source.

Assays:
[1] = biological target: T1, BCDIN3D (Homo sapiens, UniProt Q7Z5W3); assay: Methyltransferase selectivity assay (SPA); format: biochemical
T1 construct: purchased Structural Genomics Consortium (SGC Toronto) in-house methyltransferase panel
T1 sequence (Q7Z5W3 1-292): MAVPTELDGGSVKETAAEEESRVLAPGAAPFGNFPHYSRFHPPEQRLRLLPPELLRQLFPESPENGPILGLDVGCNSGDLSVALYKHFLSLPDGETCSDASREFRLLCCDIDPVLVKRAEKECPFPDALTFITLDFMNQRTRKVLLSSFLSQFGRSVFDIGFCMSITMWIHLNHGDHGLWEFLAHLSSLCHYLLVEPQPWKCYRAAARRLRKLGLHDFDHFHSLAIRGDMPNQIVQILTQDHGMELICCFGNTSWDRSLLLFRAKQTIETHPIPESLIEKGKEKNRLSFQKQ
Procedure: (§1) Selectivity against methyltransferases were determined as described previously. Details of the assays are described in the supplementary methods.
(§2) Methyltransferase selectivity assay1
(§3) The effect of chemical probes and negative controls on the methyltransferase activities of protein, DNA and RNA methyltransferases was tested by radiometric assays using 3H-SAM. For proteins such as MLL1 trimeric, MLL3 pentameric, EZH1 (PRC2) pentameric, and EZH2 (PRC2) trimeric complexes, as well as G9a, GLP, SUV39H1, SUV39H2, SUV420H1, SUV420H2, SETD2, SETD8, SETDB1, SETD7, PRMT1, PRMT3, PRMT4, PRMT5/ MEP50 complex, PRMT6, PRMT7, PRMT8, PRMT9, PRDM9, SMYD2, SMYD3, DNMT1, and BCDIN3D the incorporation of a tritium-labeled methyl group into biotinylated substrate was monitored using scintillation proximity assay (SPA). Briefly, a 10 µL reaction containing 3H-SAM and substrate at concentrations close to the apparent Km values for each enzyme (balanced conditions) was prepared. The reactions were quenched with 10 µL of 7.5 M guanidine hydrochloride; 180 µL of 20 mM Tris buffer (pH 8.0) were added, and the mixture was transferred to a 96-well FlashPlate and incubated for 1 h. The counts per minute (CPM) was measured on a TopCount plate reader. The CPM in the absence of compound or enzyme was defined as 100% activity and background (0%), respectively, for each dataset. For DNMT1, the double-stranded DNA substrate was prepared by annealing two complementary strands (biotinylated forward strand: B-[…] and reverse strand:
(§4) ) that were synthesized by Eurofins MWG Operon
(§5) For proteins which were tested with nucleosome as substrate such as DOT1L, NSD1, NSD2, NSD3, and ASH1L, or unbiotinylated Poly(2′-deoxyinosinic-2′-deoxycytidylic acid) (Cat# 81349-500UG, Sigma Aldrich) such as DNMT3A/3L, and DNMT3B/3L, a filter-based assay was used. In this assay, a trichloroacetic acid (TCA) protein precipitation protocol was employed. A 10 µL reaction mixture was incubated at 23°C for 1 h, followed by addition of 50 µL of 10% TCA. The mixture was transferred to filter plates (Millipore, Billerica, MA, USA) that were centrifuged at 2000 rpm (Allegra X-15R; Beckman Coulter, Brea, CA, USA) for 2 min. Samples were washed twice with 10% TCA and once with ethanol (180 µL), and centrifuged. After drying, 100 µL MicroScint-O (Perkin Elmer) was added to each well and the plates were centrifuged to remove the liquid. A 70 µL volume of MicroScint-O was added and the CPM was measured with a TopCount plate reader.

[2] = biological target: T2, G9a (Homo sapiens, UniProt Q96KQ7); assay: Methyltransferase selectivity assay (SPA); format: biochemical
T2 construct: purchased Structural Genomics Consortium (SGC Toronto) in-house methyltransferase panel
T2 sequence (Q96KQ7 1-1210): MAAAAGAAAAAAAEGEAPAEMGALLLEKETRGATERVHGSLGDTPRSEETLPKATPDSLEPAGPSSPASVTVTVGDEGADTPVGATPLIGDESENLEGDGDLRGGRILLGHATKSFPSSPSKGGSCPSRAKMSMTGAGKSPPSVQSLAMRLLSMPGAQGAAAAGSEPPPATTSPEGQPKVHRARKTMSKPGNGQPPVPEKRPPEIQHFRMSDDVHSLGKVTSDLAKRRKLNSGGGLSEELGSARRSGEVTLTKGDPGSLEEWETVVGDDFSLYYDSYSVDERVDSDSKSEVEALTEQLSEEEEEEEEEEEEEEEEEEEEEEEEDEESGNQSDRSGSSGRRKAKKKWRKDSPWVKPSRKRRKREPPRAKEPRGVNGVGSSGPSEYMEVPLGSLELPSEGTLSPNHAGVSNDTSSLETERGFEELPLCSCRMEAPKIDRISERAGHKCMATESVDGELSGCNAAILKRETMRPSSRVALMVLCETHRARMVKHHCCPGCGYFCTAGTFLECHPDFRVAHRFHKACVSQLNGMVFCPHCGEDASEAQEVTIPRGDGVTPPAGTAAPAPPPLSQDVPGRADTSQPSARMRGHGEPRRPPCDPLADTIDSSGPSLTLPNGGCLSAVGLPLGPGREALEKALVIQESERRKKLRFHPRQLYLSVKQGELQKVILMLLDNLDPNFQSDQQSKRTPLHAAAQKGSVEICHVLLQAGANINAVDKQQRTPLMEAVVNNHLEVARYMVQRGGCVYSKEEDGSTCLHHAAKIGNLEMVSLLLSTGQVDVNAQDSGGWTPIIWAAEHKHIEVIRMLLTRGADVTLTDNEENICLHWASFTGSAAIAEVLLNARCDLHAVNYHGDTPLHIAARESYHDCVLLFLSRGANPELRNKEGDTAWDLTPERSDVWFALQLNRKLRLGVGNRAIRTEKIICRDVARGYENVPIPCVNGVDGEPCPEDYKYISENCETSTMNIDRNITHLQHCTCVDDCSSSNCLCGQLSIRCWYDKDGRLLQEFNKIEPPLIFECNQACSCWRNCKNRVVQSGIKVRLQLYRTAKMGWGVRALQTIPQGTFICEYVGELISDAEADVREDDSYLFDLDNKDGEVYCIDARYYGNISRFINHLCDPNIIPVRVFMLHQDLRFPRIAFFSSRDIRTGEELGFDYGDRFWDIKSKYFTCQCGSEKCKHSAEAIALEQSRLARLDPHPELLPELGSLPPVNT
Procedure: as §1, §2, §3, §4, §5

[3] = 1µM compound, Exp1, Exp2, read-out: Activity %
[4] = 10µM compound, Exp1, Exp2, 10 µM
[5] = 10µM compound, Exp1, Exp2, read-out: Activity %

SMILES | Activity % ([1]; 1µM compound, Exp1, Exp2, 1 µM) [%] | activity at 1 µM [1, 3] [%] | Activity % [1, 4] [%] | activity at 10 µM [1, 5] [%] | Activity % ([2]; 1µM compound, Exp1, Exp2, 1 µM) [%] | activity at 1 µM [2, 3] [%] | activity at 10 µM [2, 5] [%] | activity at 1 µM ([1]; 1µM compound, Exp1, Exp2) [%] | activity at 10 µM ([1]; 10µM compound, Exp1, Exp2) [%] | activity at 1 µM ([2]; 1µM compound, Exp1, Exp2) [%] | activity at 10 µM ([2]; 10µM compound, Exp1, Exp2) [%] | Activity % [2, 4] [%]
COc1cc(OC)cc(-c2noc(N3CCN(C)C4(CCN(c5ccnc(C)c5)CC4)C3)n2)c1 [MRK-740] | 100 | 101 | 95 | 104 | 89 | 93 | 94 | – | – | – | – | –
COc1cc(OC)cc(-c2noc(N3CCN(C)C4(CCN(c5ccccc5)CC4)C3)n2)c1 [MRK-740 -NC] | 101 | – | 94 | – | 100 | – | – | 103 | 100 | 101 | 95 | 93
